In assay [1] the target is IRAK4 (Homo sapiens (Human), UniProt Q9NWZ3). Kind of assay: IRAK4 Inhibition Assay. To be noted: IRAK4 Inhibition Assay, ATP 500 μM, read-out: IRAK4 IC50. It is filed as biochemical. In outline: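 IRAK4 combined with fluorescent substrate and compounds, reacted 60 min at room temperature, stopped with 35 mM EDTA. Substrate and phosphorylated product separated electrophoretically on a Caliper LabChip 3000 mobility-shift reader.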

Assay [2] concerns TLR2 induced IL-6 in peripheral blood mononuclear cells (PBMCs). Kind of assay: PBMC TLR2 Induced IL-6 Assay. It is filed as cell-based, human. To be noted: for EC50: read-out: Cell EC50; for IC50: read-out: Cell IC50. In a few lines: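 Lipoteichoic acid at 10 µg/ml served as TLR2 stimulus for 5 hours, following a 30-minute compound pretreatment at 37° C. Cells were Ficoll-isolated human PBMCs, 250000 cells/well, cultured in RPMI plus 10% heat-inactivated FCS.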

Where [3] appears, read: Homo sapiens, PBMC, PBMC TLR2 Induced IL-6 Assay, lipoteichoic acid stimulation, IL-6 by ELISA.

Structures are written as SMILES. Where a name gives a salt, the structure may show the parent alone. Read-outs that look alike come from different tables or passages of the source.

For 34 molecules, IC50 and EC50 results are on record in US9169252B2 (BRISTOL-MYERS SQUIBB COMPANY, priority 2014, dated 2015).

Broadly, the IC50 is the concentration that inhibits the measured activity by half. One may read the EC50 as the concentration giving half of the maximal effect.

Chain of IRAK4 (Q9NWZ3 whole entry, species assumed): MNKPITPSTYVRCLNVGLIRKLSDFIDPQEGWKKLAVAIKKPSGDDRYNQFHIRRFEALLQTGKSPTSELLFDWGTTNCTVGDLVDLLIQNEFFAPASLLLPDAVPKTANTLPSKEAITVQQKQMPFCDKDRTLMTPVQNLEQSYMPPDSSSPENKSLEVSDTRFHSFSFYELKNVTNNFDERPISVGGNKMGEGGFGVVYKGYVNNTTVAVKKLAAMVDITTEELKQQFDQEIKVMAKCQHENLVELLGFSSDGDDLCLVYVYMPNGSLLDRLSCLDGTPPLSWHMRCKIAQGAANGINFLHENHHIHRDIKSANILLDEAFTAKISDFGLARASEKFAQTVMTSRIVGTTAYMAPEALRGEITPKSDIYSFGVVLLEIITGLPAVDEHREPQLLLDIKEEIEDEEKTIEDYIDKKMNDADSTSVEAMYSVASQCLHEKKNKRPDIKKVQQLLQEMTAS

Take `CC(C)Nc1cc(-n2ccc3cc(C#N)cnc32)ncc1C(=O)N[C@H]1CC[C@](O)(c2ccncc2)CC1` [Example 179, 6-(5-cyano-1H-pyrrolo[2,3-b]pyridin-1-yl)-N-((1 s,4s)-4-hydroxy-4-(pyridin-4-yl)cyclohexyl)-4-(isopropylamino)nicotinamide]: in assay [1], the IC50 turned out to be 2.8 nM. Moreover, the EC50 in assay [2] (setting [3]) worked out at 135 nM.
Take `CC(C)Nc1cc(-n2ccc3cc(C#N)cnc32)ncc1C(=O)N[C@H]1CC[C@](F)(c2nccs2)CC1` [Example 180, 6-(5-cyano-1H-pyrrolo[2,3-b]pyridin-1-yl)-N-((1s,4s)-4-fluoro-4-(thiazol-2-yl)cyclohexyl)-4-(isopropylamino)nicotinamide]: the IC50 in assay [1] was determined as 5.3 nM. For the same molecule, the EC50 in assay [2] (setting [3]) is 208 nM.
For the molecule `CC(C)Nc1cc(-n2ccc3cc(C#N)cnc32)ncc1C(=O)N[C@H]1CC[C@](F)(c2nccn2C)CC1` [Example 181, 6-(5-cyano-1H-pyrrolo[2,3-b]pyridin-1-yl)-N-((1 s,4s)-4-fluoro-4-(1-methyl-1H-imidazol-2-yl)cyclohexyl)-4-(isopropylamino) nicotinamide], the IC50 in assay [1] came out at 4.3 nM. Besides, the EC50 in assay [2] (setting [3]) is 152 nM.
`CC(C)Nc1cc(-n2ccc3cc(C#N)cnc32)ncc1C(=O)N[C@H]1CC[C@@](F)(c2nccn2C)CC1` [Example 182, 6-(5-cyano-1H-pyrrolo[2,3-b]pyridin-1-yl)-N-((trans)-4-fluoro-4-(1-methyl-1H-imidazol-2-yl)cyclohexyl)-4-(isopropylamino)nicotinamide]: in assay [1], the IC50 is 1.8 nM. In assay [2] (setting [3]), the EC50 was found to be 74 nM.
With `CC(C)Nc1cc(-n2ccc3cc(C#N)cnc32)ncc1C(=O)NC1CCC2(CC1)NC(=O)NC2=O` (stereo not shown) [Example 183, 6-(5-Cyano-1H-pyrrolo[2,3-b]pyridin-1-yl)-N-(2,4-dioxo-1,3-diazaspiro[4.5]decan-8-yl)-4-(isopropylamino)nicotinamide], in assay [1], the IC50 stood at 4.1 nM. Also, the EC50 in assay [2] (setting [3]) was 179 nM.
As to `CC(C)Nc1cc(-n2ccc3cc(C#N)cnc32)ncc1C(=O)N[C@@H]1CC=C(c2ccncc2)CC1` [Example 184, (S)-6-(5-Cyano-1H-pyrrolo[2,3-b]pyridin-1-yl)-4-(isopropylamino)-N-(4-(pyridin-4-yl)cyclohex-3-en-1-yl)nicotinamide], in assay [1], the IC50 came out at 5.5 nM. For the same molecule, in assay [2] (setting [3]), the EC50 worked out at 436 nM.
In the case of `CC(C)Nc1cc(-n2ccc3cnc(N(C)C)nc32)ncc1C(=O)NC[C@@H](F)C(C)(C)O` [Example 185, (R)-6-(2-(Dimethylamino)-7H-pyrrolo[2,3-d]pyrimidin-7-yl)-N-(2-fluoro-3-hydroxy-3-methylbutyl)-4-(isopropylamino)nicotinamide], the IC50 in assay [1] worked out at 3.4 nM. In assay [2] (setting [3]), the EC50 worked out at 350 nM.
`CC(C)Nc1cc(-n2ccc3cnc(N)nc32)ncc1C(=O)NC[C@@H](F)C(C)(C)O` [Example 186, (R)-6-(2-Amino-7H-pyrrolo[2,3-d]pyrimidin-7-yl)-N-(2-fluoro-3-hydroxy-3-methylbutyl)-4-(isopropylamino)nicotinamide]: the IC50 in assay [1] was 1.3 nM. For the same molecule, in assay [2] (setting [3]), the EC50 stood at 44 nM.
For `CC(C)Nc1cc(-n2ccc3cnc(NCC(C)(C)O)nc32)ncc1C(=O)NC[C@@H](F)C(C)(C)O` [Example 187, (R)—N-(2-Fluoro-3-hydroxy-3-methylbutyl)-6-(2-((2-hydroxy-2-methylpropyl)amino)-7H-pyrrolo[2,3-d]pyrimidin-7-yl)-4-(isopropylamino)nicotinamide], in that order: 1.9 nM and 86 nM.
Take `CC(C)Nc1cc(-n2ccc3cnc(NCCO)nc32)ncc1C(=O)NC[C@@H](F)C(C)(C)O` [Example 188, (R)—N-(2-fluoro-3-hydroxy-3-methylbutyl)-6-(2-((2-hydroxyethyl)amino)-7H-pyrrolo[2,3-d]pyrimidin-7-yl)-4-(isopropylamino)nicotinamide]: in assay [1], the IC50 is 1.7 nM. The EC50 in assay [2] (setting [3]) was determined as 57 nM.
For `CC(C)Nc1cc(-n2ccc3cnc(N4CC[C@H](O)C4)nc32)ncc1C(=O)NC[C@@H](F)C(C)(C)O` [Example 189, N—((R)-2-fluoro-3-hydroxy-3-methylbutyl)-6-(2-((S)-3-hydroxypyrrolidin-1-yl)-7H-pyrrolo[2,3-d]pyrimidin-7-yl)-4-(isopropylamino)nicotinamide], in that order: 4.8 nM and 75 nM.
In the same order, the values of `CC(C)Nc1cc(-n2ccc3cnc(N4CC[C@@H](O)C4)nc32)ncc1C(=O)NC[C@@H](F)C(C)(C)O` [Example 190, N—((R)-2-fluoro-3-hydroxy-3-methylbutyl)-6-(2-((R)-3-hydroxypyrrolidin-1-yl)-7H-pyrrolo[2,3-d]pyrimidin-7-yl)-4-(isopropylamino)nicotinamide] are 4.7 nM and 120 nM.
As for `CC(C)Nc1cc(-n2ncc3cc(C#N)cnc32)ncc1C(=O)NC[C@@H](F)C(C)(C)OP(=O)(O)O` [Example 191, (R)-4-(6-(5-Cyano-1H-pyrazolo[3,4-b]pyridin-1-yl)-4-(isopropylamino)nicotinamido)-3-fluoro-2-methylbutan-2-yl dihydrogen phosphate], the IC50 in assay [1] was determined as 14.7 nM. Besides, the EC50 in assay [2] (setting [3]) came to 10000 nM.
`CC(C)Nc1cc(-n2ncc3cc(C#N)cnc32)ncc1C(=O)NC[C@@H](F)C(C)(C)O` [Example 192, (R)-6-(5-Cyano-1H-pyrazolo[3,4-b]pyridin-1-yl)-N-(2-fluoro-3-hydroxy-3-methylbutyl)-4-(isopropylamino)nicotinamide, hydrochloride]: the IC50 in assay [1] (hydrochloride) is 2.6 nM. In addition, the EC50 in assay [2] (PBMC TLR2 Induced IL-6 Assay, lipoteichoic acid stimulation, IL-6 by ELISA, hydrochloride) was determined as 120 nM.
As for `CC[C@@H](C)Nc1cc(-n2ncc3cc(C#N)cnc32)ncc1C(=O)NCCC(C)(C)O` [Example 193, (R)-4-(sec-Butylamino)-6-(5-cyano-1H-pyrazolo[3,4-b]pyridin-1-yl)-N-(3-hydroxy-3-methylbutyl)nicotinamide], the IC50 in assay [1] was 3.4 nM; in assay [2] (setting [3]), 287 nM.
For the molecule `COc1cnc2c(cnn2-c2cc(NC(C)C)c(C(=O)NC[C@@H](F)C(C)(C)O)cn2)c1` [Example 195], the IC50 in assay [1] came to 19.4 nM. For the same molecule, in assay [2] (setting [3]), the EC50 turned out to be 340 nM and the IC50 turned out to be 647 nM.
As for `CC(C)Nc1cc(-n2ncc3cc(C#N)cnc32)ncc1C(=O)NC[C@H](F)C(C)(C)O` [Example 196], in assay [1], the IC50 was determined as 10.4 nM. Also, in assay [2] (setting [3]), the EC50 is 304 nM and the 50% inhibitory concentration (IC50) was 328 nM.
For the molecule `CC(C)NC(=O)[C@H](F)CNC(=O)c1cnc(-n2ncc3cc(C#N)cnc32)cc1NC(C)C` [Example 197], the IC50 in assay [1] was 8.1 nM. Further, in assay [2] (setting [3]), the EC50 was found to be 297 nM.
As to `COC1CCC(NC(=O)c2cnc(-n3ncc4cc(C#N)cnc43)cc2NC(C)C)CC1` (stereo not shown) [Example 198], the IC50 in assay [1] came to 3.4 nM. Also, in assay [2] (setting [3]), the EC50 was determined as 134 nM.
Regarding `CCCCNC(=O)c1cnc(-n2ncc3cc(C#N)cnc32)cc1NC(C)C` [Example 199], the IC50 in assay [1] was 6.3 nM. In addition, the EC50 in assay [2] (setting [3]) is 281 nM.
As for `COC(C)(C)[C@H](F)CNC(=O)c1cnc(-n2ncc3cc(C#N)cnc32)cc1NC(C)C` [Example 200], the IC50 in assay [1] was 2.8 nM. Moreover, in assay [2] (setting [3]), the EC50 turned out to be 79 nM.
For the molecule `CC(C)Nc1cc(-n2ncc3cc(C#N)cnc32)ncc1C(=O)NCCCN1CCOCC1` [Example 201], the IC50 in assay [1] came to 16.3 nM. Moreover, the EC50 in assay [2] (setting [3]) came out at 583 nM.
As for `CC(C)Nc1cc(-n2ncc3cc(C#N)cnc32)ncc1C(=O)NCCN1CCOCC1` [Example 204], the IC50 in assay [1] is 4.9 nM. In addition, the EC50 in assay [2] (setting [3]) turned out to be 174 nM.
`CC(C)Nc1cc(-n2ncc3cc(C#N)cnc32)ncc1C(=O)NCC(=O)N1CCOCC1` [Example 206]: in assay [1], the half-inhibitory concentration (IC50) amounted to 14.4 nM. The EC50 in assay [2] (setting [3]) is 86 nM.
For the molecule `COC(=O)CCNC(=O)c1cnc(-n2ncc3cc(C#N)cnc32)cc1NC(C)C` [Example 207], in assay [1], the IC50 stood at 10.3 nM. In assay [2] (setting [3]), the EC50 stood at 227 nM.
In the case of `CCOP(=O)(CCNC(=O)c1cnc(-n2ncc3cc(C#N)cnc32)cc1NC(C)C)OCC` [Example 208], the IC50 in assay [1] was found to be 16 nM. Moreover, the EC50 in assay [2] (Homo sapiens, PBMC) came out at 238 nM.
As to `[2H]C([2H])([2H])OC(C)(C)[C@H](F)CNC(=O)c1cnc(-n2ncc3cc(C#N)cnc32)cc1NC(C)C` [Example 210], the IC50 in assay [1] stood at 3.1 nM. In addition, in assay [2] (setting [3]), the EC50 was found to be 206 nM.
For `CC(C)Nc1cc(-n2ncc3cc(C#N)cnc32)ncc1C(=O)NCCN1CCS(=O)(=O)CC1` [Example 211], in that order: 8.1 nM and 87 nM.
In the same order, the values of `CCNC(=O)CCNC(=O)c1cnc(-n2ncc3cc(C#N)cnc32)cc1NC(C)C` [Example 212] are 12.4 nM and 192 nM.
In the same order, the values of `CC(C)Nc1cc(-n2ncc3cc(C#N)cnc32)ncc1C(=O)NCCCc1ncn[nH]1` [Example 213] are 14.8 nM and 428 nM.
With `Cc1cnc2c(cnn2-c2cc(NC(C)C)c(C(=O)N[C@H]3CC[C@H](C(C)(C)O)CC3)cn2)c1` [Example 214], the IC50 in assay [1] worked out at 13.6 nM. In assay [2] (setting [3]), the concentration giving a half-maximal response (EC50) came to 209 nM.
With `CCOC(C)(C)[C@H](F)CNC(=O)c1cnc(-n2ncc3cc(C#N)cnc32)cc1NC(C)C` [Example 215], the IC50 in assay [1] worked out at 3.7 nM. The EC50 in assay [2] (setting [3]) was found to be 144 nM.
Turning to `CC(C)Nc1cc(-n2ncc3cc(C#N)cnc32)ncc1C(=O)Nc1ccc(N2CCOCC2)nc1` [Example 216], the IC50 in assay [1] was 4.5 nM. Also, the EC50 in assay [2] (setting [3]) turned out to be 253 nM.
Regarding `CC(C)Nc1cc(-n2ncc3cc(C#N)cnc32)ncc1C(=O)Nc1ccc(O)cn1` [Example 217], the IC50 in assay [1] turned out to be 15.5 nM. Also, the EC50 in assay [2] (setting [3]) is 503 nM.
